US20220369641A1, “MOLECULAR COMPLEXES” (priority 2019, published 2022)
Converted amounts (≈) assume the structure as drawn.

Experiments:
[1] = Thermodynamic (aqueous) solubility, 24 hours at 25° C., HPLC quantitation; assay type: physicochemical; conditions: for solubility thermodynamic at 24 h: thermodynamic from solid
Procedure: The suspension was equilibrated at 25° C., on a Heidolph plate shaker set to 750 rpm for 24 hours. The pH of the sample solutions was periodically checked and, if required, adjusted with 0.2M NaOH to ensure that the desired pH was maintained (±0.05) throughout. The pH of the saturated solution after this time was measured and the suspension filtered through a glass fibre C filter (particle retention 1.2 μm) and diluted appropriately.
Quantitation was by HPLC with reference to a standard solution of approximately 0.15 mg/ml in 1:1 MeCN/H2O. Different volumes of the standard, diluted and undiluted sample solutions were injected.
Different volumes of the standard, diluted and undiluted sample solutions were injected. The solubility was calculated using the peak areas determined by integration of the peak found at the same retention time as the principal peak in the standard injection.
Analysis was performed on an Agilent HP1100 series system equipped with a diode array detector and using ChemStation software.

[2] = Intrinsic dissolution rate (IDR), Sirius inForm, compressed discs; assay type: physicochemical; conditions: 37° C., pH 5.0 media, 1 hour, 6 mm disc
Procedure: IDR Method Ca. 40 mg material was compressed under 100 kg for 2 minutes to form non-disintegrating discs. The discs were then plugged with a bung so that only one surface was exposed to the media during analysis, and transferred to the dissolution apparatus (Sirius inForm). The volume of the assay was 40 ml and a stir speed of 225 rpm was used. Analysis was performed at 37° C. in pH 5.0 media for 1 hour with UV spectra collected every 30 seconds, using a 20 mm path length probe.

[3] = Media DI Water, pH 7.8, 25° C., 24 hours, final pH 5.24-5.42

Molecule: COc1c(Cl)ccc(Cl)c1C(=O)O [Dicamba freeform, 3,6-Dichloro-2-methoxybenzoic acid]
- solubility thermodynamic at 24 h ([1]; pH 4.0 acetic acid/sodium acetate media, aqueous buffer, pH 4.0 media (42.4 ml 0.1 M acetic acid mixed with 7.6 ml 0.1 M sodium acetate), 25° C., 24 hours, read-out: Thermodynamic solubility of second component): > 13800 µg/mL

Molecule: Nc1c(Cl)c(F)nc(OCC(=O)O)c1Cl [Fluroxypyr freeform, Fluroxypyr]
- IDR of second component [2]: 956.9 μg/min/cm^2
- solubility thermodynamic at 24 h ([1]; 25 °C, pH 4.04, water): 290 µg/mL (≈ 1140 µM)

Molecule: CCc1cc(C)cc(CC)c1-c1c(OC(=O)C(C)(C)C)n2n(c1=O)CCOCC2 [Pinoxaden freeform, [8-(2,6-diethyl-4-methylphenyl)-7-oxo-1,2,4,5-tetrahydropyrazolo[1,2-d][1,4,5]oxadiazepin-9-yl] 2,2-dimethylpropanoate]
- IDR of pinoxaden component [2]: 69.4 μg/min/cm^2
- solubility thermodynamic at 24 h ([1]; aqueous buffer, pH 4.0 media (42.4 ml 0.1 M acetic acid mixed with 7.6 ml 0.1 M sodium acetate), 25° C., 24 hours, read-out: Thermodynamic solubility of pinoxaden component): 280 µg/mL (≈ 699 µM)
- solubility thermodynamic at 24 h ([1]; Media DI Water, 25° C., 24 hours, final pH 3.97-4.10, read-out: Thermodynamic solubility of pinoxaden component): ~230 µg/mL (≈ 574 µM)

Molecule: Pinoxaden:2,4-D (1:1) Molecular Complex [Example 3]
- Thermodynamic solubility of pinoxaden component [1, 3]: 200 µg/mL
- Thermodynamic solubility of second component [1, 3]: 120 µg/mL
